Patent US20230381094A1, “Cosmetic Composition with Skin Microbiome-Friendly Properties” (LG Household & Health Care Ltd., priority 2022, published 2023)

tested on: Staphylococcus epidermidis; assay: Beneficial skin bacteria affinity evaluation (challenge test); format: cell-based; details: Experimental Example 1; ingredient in oil-in-water composition of Preparation Example 1; FIG. 2 / FIG. 3
From the text: As the beneficial bacteria serving as the affinity evaluation criterion of each composition prepared in Preparation Example 1, Staphylococcus epidermidis (S. epidermidis), a Gram positive bacterium, was selected. S. epidermidis is part of the skin flora present in large numbers in healthy skin, and is a representative beneficial bacterium that helps improve skin immunity and protect skin from external environmental factors by producing peptide antibiotics or PSM (phenol-soluble modulins) (Parlet, C. P., et al. (2019) Trends in microbiology, 27(6), 497-507). The evaluation of affinity for beneficial bacteria was performed by the challenge test method (Russell A. D., (2003), Int J Cosmet Sci., 25(3), 147-153) as follows.
Specifically, S. epidermidis was first incubated in TSA (Tryptic Soy Agar) medium at 37° C. for 24 hours, and then inoculated into 50.0 g of each composition prepared in Preparation Example 1 so as to be 1×10^6 CFU to 1×10^7 CFU (colony-forming units)/mL. After inoculation, the bacteria were evenly mixed in the composition by vortexing or using a sterilized stick. After inoculation, the mixture was stored at room temperature. In consideration of the product usage cycle, such as cosmetics, and the general usage patterns of these products, a maximum of 24 hours was set as the time required for examination. With this determination, 24 hours after inoculation, 1 mL of the composition inoculated with the bacteria was diluted stepwise using a 0.85% NaCl solution, 100 μL of each diluted solution was spread on TSA medium, incubation was conducted at 37° C. for 48 hours, and then CFUs were counted.
As the affinity evaluation criterion, the following “bacterial growth index*” parameter was used, and a composition having a bacterial growth index of −1.00 or more on day 1 after inoculation of bacteria was selected as a “cosmetic with beneficial skin bacteria-friendly properties” having an effect of maintaining beneficial skin bacteria or enhancing beneficial skin bacteria.
*Bacterial growth index=log10[{Number of viable bacteria (CFU/g)}/{Number of inoculated bacteria (CFU/g)}]

Compound	growth of beneficial bacteria (result in words)
CCOCCOCCOC(=O)C1CCC(C(=O)OCCOCCOCC)CC1 (centres unmarked) [bis-ethoxydiglycol cyclohexane 1,4-dicarboxylate]	inhibit the growth of beneficial bacteria
C=CCCCCCCCCC(=O)OCCCCCCC [heptyl undecylenate]	inhibit the growth of beneficial bacteria
diethoxyethyl succinate	inhibit the growth of beneficial bacteria
inulin lauryl carbamate	did not inhibit the growth of beneficial bacteria
sodium dilauramidoglutamide lysine	did not inhibit the growth of beneficial bacteria
